Data on 44 compounds can be found in ChEMBL document CHEMBL1135175, “Synthesis and bioactivities of novel bicyclic thiophenes and 4,5,6,7-tetrahydrothieno[2,3-c]pyridines as inhibitors of tumor necrosis factor-alpha (TNF-alpha) production” (Bioorg Med Chem Lett, 2002).

For assay [1], the species on record is Rattus norvegicus. Nature of the assay: Evaluated for its ability to inhibit LPS stimulated production of TNF-alpha in rat whole blood. The class given is functional, organism-based.
The subject of assay [2] is Rattus norvegicus. Put plainly: TNF-alpha inhibiting activity by in vivo inhibition of serum TNF production in rat at 50 mg/kg, peroral administration. The class given is functional. Particulars: route oral.
The test system of assay [3] is Rattus norvegicus. Put plainly: Compound was evaluated for percentage recovery from GAG in adjuvant-induced arthritic model of rat at a dose of 10 mg/kg. The format is functional, organism-based. More on the design: dose 10 mg/kg.
Assay [4] relates to Rattus norvegicus. Put plainly: Compound was evaluated for percentage recovery from femur weight in adjuvant-induced arthritic model of rat at a dose of 10 mg/kg. More on the design: dose 10 mg/kg. The format is functional, organism-based.
Assay [5] relates to Rattus norvegicus. Put plainly: Compound was evaluated for percentage recovery from paw edema in adjuvant-induced arthritic model of rat at a dose of 10 mg/kg. Also noted: dose 10 mg/kg. The format is functional, organism-based.
In assay [6] the test system is Rattus norvegicus. Nature of the assay: Compound was evaluated for percentage recovery from GAG in adjuvant-induced arthritic model of rat at a dose of 2 mg/kg. The format is functional.
Assay [7] concerns Rattus norvegicus. Put plainly: Compound was evaluated for percentage recovery from femur weight in adjuvant-induced arthritic model of rat at a dose of 2 mg/kg. The class given is functional.
The subject of assay [8] is Rattus norvegicus. Nature of the assay: Compound was evaluated for percentage recovery from paw edema in adjuvant-induced arthritic model of rat at a dose of 2 mg/kg. The class given is functional.
In assay [9] the test system is Rattus norvegicus. Nature of the assay: Compound was evaluated for percentage recovery from GAG in adjuvant-induced arthritic model of rat at a dose of 50 mg/kg. The format is functional.
Assay [10] has as its system Rattus norvegicus. Put plainly: Compound was evaluated for percentage recovery from femur weight in adjuvant-induced arthritic model of rat at a dose of 50 mg/kg. The format is functional.
For assay [11], the system named is Rattus norvegicus. Put plainly: Compound was evaluated for percentage recovery from paw edema in adjuvant-induced arthritic model of rat at a dose of 50 mg/kg. The class given is functional.
Assay [12] relates to Rattus norvegicus. Put plainly: TNF-alpha inhibiting activity was assessed by In vivo inhibition of serum TNF production in rat, at 50 mg/kg, po. The format is functional.

Take `CCCN(CC1CC1)C(=O)Nc1sc2c(c1C(=O)OCC)CCN(C(C)=O)C2`: the midpoint of inhibition in assay [1], the IC50, lay at 1.3 µM. Also, the inhibition in vivo (commonly the share of the control response that was lost under treatment) at 50 mg/kg in assay [2] was 34.8%.

Turning to `CCCCC(CC)COC(=O)c1c(NC(=O)C(C)C)sc2c1CCN(C(C)=O)C2` (stereo unspecified), in assay [1], half-maximal inhibition (IC50) was put at 10 µM. Further, at 50 mg/kg the inhibition in vivo in assay [2] was 10.6%.

`CCNC(=O)Nc1sc2c(c1C(=O)OCC)CCN(C(C)=O)C2`: the midpoint of inhibition in [1], the IC50, lay at 19 µM. The same compound showed an inhibition in vivo at 50 mg/kg in assay [2] of 17%.

On to `CC(=O)N1CCc2c(sc(NC(=O)C(C)C)c2C(=O)OC(C)C)C1`, for which, in assay [1], half-maximal inhibition (IC50) was put at 7.1 µM. The compound also returned an inhibition in vivo at 50 mg/kg in assay [2] of 42.1%.

Turning to `CCOC(=O)Nc1sc2c(c1C(=O)OCC)CCN(C(C)=O)C2`, in assay [1], half-maximal inhibition (IC50) was put at 20 µM. In addition, 50 mg/kg produced 57.1% inhibition in vivo in assay [2].

Take `CCOC(=O)c1c(NC(=O)C(C)C)sc2c1CCN(C)C2`: the IC50 (in general, the concentration that gives 50% inhibition) in assay [1] was 32 µM. This compound also came in with an inhibition in vivo at 50 mg/kg in assay [2] of 22.7%.

In assay [1], `CCOC(=O)c1c(NC(=O)N2CCSC2)sc2c1CCN(CC)C2` yielded an IC50 of 6 µM. Moreover, the inhibition in vivo at 50 mg/kg in assay [2] stood at 5.4%.

In turn, `CCOC(=O)c1c(NC(=O)N2CCN(C=O)CC2)sc2c1CCN(C(C)=O)C2` showed a half-inhibitory concentration (IC50) in assay [1] of 22 µM. This compound displayed an inhibition in vivo at 50 mg/kg in assay [2] of 41.9%.

In turn, `CC(=O)N1CCc2c(sc(NC(=O)C(C)C)c2C(=O)O)C1` returned an IC50 in [1] above 100 µM.

In assay [1], `CCOC(=O)c1c(NC(=O)Nc2cccnc2)sc2c1CCN(C(C)=O)C2` yielded a half-maximal inhibitory concentration (IC50) of 13 µM. Moreover, testing at 50 mg/kg in assay [2] gave an inhibition in vivo of 48.7%.

On to `CCOC(=O)c1c(NC(=O)N2CCOCC2)sc2c1CCN(C(C)=O)C2`, for which the IC50 in [1] was determined as 1 µM. In assay [2], this compound gave an inhibition in vivo at 50 mg/kg of 90.3%.

In turn, `CCOC(=O)c1c(NC(=O)CC)sc2c1CCN(C(C)=O)C2` registered an IC50 in assay [1] of 7.9 µM. In assay [2], this compound registered an inhibition in vivo at 50 mg/kg of 90.1%.

With `CCOC(=O)c1c(NC(=O)C(C)C)sc2c1CCN(Cc1ccccc1)C2`, in assay [1], the IC50 amounted to 42 µM.

Take AURANOFIN: the GAG in [3] was 73%. Moreover, in assay [4], the Femur weight is 17%. In addition, in assay [5], the Paw edema is -4.7%.

In turn, `CCCN1CCc2c(sc(NC(=O)C(C)C)c2C(=O)OCC)C1` displayed an IC50 in assay [1] of 40 µM.

Regarding `CCOC(=O)c1c(NC(=O)C(C)C)sc2c1CCN(C(=O)c1ccccc1)C2`, the IC50 in assay [1] came out at 10 µM. In addition, in [2], the inhibition in vivo at 50 mg/kg came to 31.8%.

In turn, `CCCCC(=O)Nc1sc2c(c1C(=O)OCC)CCN(C(C)=O)C2` came in with an IC50 in assay [1] of 18 µM. This compound also had an inhibition in vivo at 50 mg/kg in assay [2] of 42.9%.

In the case of `CCOC(=O)c1c(NC(=O)CC(C)C)sc2c1CCN(C(C)=O)C2`, the IC50 in [1] came to 20 µM. Besides, in assay [2], at 50 mg/kg the inhibition in vivo was 33.1%.

`CCOC(=O)c1c(NC(=O)NC(Cc2ccccc2)C(=O)OC)sc2c1CCN(C(C)=O)C2` (stereo unspecified) registered an IC50 in [1] of 0.9 µM. This compound also showed an inhibition in vivo at 50 mg/kg in assay [2] of 8.2%.

`CCOC(=O)c1c(NC(=O)C(C)C)sc2c1CCN(C(C)=O)C2` gave an inhibition in vivo at 50 mg/kg in [2] of 49.1%.

Turning to `CCOC(=O)c1c(NC(=O)C2CC2)sc2c1CCN(C(C)=O)C2`, the inhibition in vivo at 50 mg/kg in assay [2] was 64.2%.

As to `CCOC(=O)c1c(NC(=O)C(C)C)sc2c1CCCC2`, the IC50 in [1] stood at 28 µM. In addition, 50 mg/kg produced 1.8% inhibition in vivo in assay [2].

In assay [1], `CCCC(=O)Nc1sc2c(c1C(=O)OCC)CCN(C(C)=O)C2` had an IC50 of 28 µM. Besides, testing at 50 mg/kg in [2] gave an inhibition in vivo of 33.3%.

In the case of `CCOC(=O)c1c(NC(=O)N2CCSCC2)sc2c1CCN(C(C)=O)C2`, in assay [1], the IC50 was 12 µM. This compound came in with an inhibition in vivo at 50 mg/kg in [2] of 20%.

As for `CCOC(=O)c1c(NC(=O)N2CCN(C)CC2)sc2c1CCN(C(C)=O)C2`, the IC50 in [1] amounted to 17 µM. In addition, in assay [2], at 50 mg/kg the inhibition in vivo was 40.7%.

In turn, `CCOC(=O)c1c(NC(=O)CC)sc2c1CCN(CC)C2` yielded an IC50 in assay [1] of 22 µM. For the same compound, in assay [2], the inhibition in vivo at 50 mg/kg came out at 9.2%.

The compound `CC(=O)N1CCc2c(sc(NC(=O)C(C)C)c2C#N)C1` yielded an IC50 in assay [1] of 22 µM. Besides, in assay [2], the inhibition in vivo at 50 mg/kg is 23.2%.

Turning to `COc1ccc2c(c1)c(CC(=O)O)c(C)n2C(=O)c1ccc(Cl)cc1` [INDOMETHACIN], the GAG in assay [6] stood at 7.4%. For the same compound, the Femur weight in assay [7] is on record as 20%. In addition, the Paw edema in assay [8] was 72.1%.

In turn, `CCOC(=O)c1c(NC(=O)c2cccnc2)sc2c1CCN(C(C)=O)C2` showed an inhibition in vivo at 50 mg/kg in assay [2] of 23.5%.

The compound `CCOC(=O)c1c(NC(=O)N(CC)CC)sc2c1CCN(C(C)=O)C2` displayed an IC50 in assay [1] of 6.2 µM. For the same compound, the GAG in [9] is on record as 119%. In assay [10], the Femur weight was 110%. This compound displayed an inhibition in vivo at 50 mg/kg in assay [2] of 92.3%. For the same compound, the Paw edema in [11] worked out at 42.5%.

`CCOC(=O)c1c(N(C)C(=O)CC)sc2c1CCN(C(C)=O)C2` came in with an IC50 in [1] of 9 µM. Further, the inhibition in vivo at 50 mg/kg in assay [2] came out at 81%.

In turn, `CCOC(=O)c1c(NC(=O)OCCN2CCOCC2)sc2c1CCN(C(C)=O)C2` yielded an IC50 in assay [1] of 13 µM. In addition, testing at 50 mg/kg in assay [2] gave an inhibition in vivo of 57.6%.

On to `CCOC(=O)c1c(NC(=O)C(C)C)sc2c1CCOC2`, for which, in [1], the IC50 amounted to 10 µM. Moreover, at 50 mg/kg the inhibition in vivo in assay [2] was 17.6%.

In [1], `CCOC(=O)c1c(NC(C)=O)sc2c1CCN(C(C)=O)C2` came in with an IC50 of 13 µM. Moreover, in [2], the inhibition in vivo at 50 mg/kg was 78.4%.

With `CCOC(=O)c1c(NC(=O)C(C)C)sc2c1CCN(CC)C2`, the IC50 in [1] came out at 15 µM. This compound came in with an inhibition in vivo at 50 mg/kg in [2] of 69.2%.

For the compound `CCOC(=O)c1c(NC(=O)N(CC)CC)sc2c1CCN(CC)C2`, it took 2.2 µM to reach half-maximal inhibition in assay [1] (IC50). Further, in assay [12], the inhibition in vivo at 50 mg/kg came out at 88.7%.

Regarding `CCOC(=O)c1c(NC(=O)C(C)(C)C)sc2c1CCN(C(C)=O)C2`, in assay [1], the IC50 came to 11 µM. This compound yielded an inhibition in vivo at 50 mg/kg in assay [2] of 63.7%.

`CCOC(=O)c1c(NC(=O)N(CC)C2CCCCC2)sc2c1CCN(C(C)=O)C2`: in [1], half-maximal inhibition (IC50) was put at 12 µM. For the same compound, in assay [2], the inhibition in vivo at 50 mg/kg stood at 7.6%.

Turning to `CCOC(=O)c1c(NC(=O)N2CCNCC2)sc2c1CCN(C(C)=O)C2`, the midpoint of inhibition in [1], the IC50, lay at 16 µM. In assay [2], this compound returned an inhibition in vivo at 50 mg/kg of 51.4%.

In assay [1], `CCOC(=O)c1c(NC(=O)N2CCCCC2)sc2c1CCN(C(C)=O)C2` had an IC50 of 13 µM. The compound further returned an inhibition in vivo at 50 mg/kg in assay [2] of 46.8%.

Take `CCOC(=O)c1c(NC(=O)NN2CCOCC2)sc2c1CCN(C(C)=O)C2`: in assay [1], the IC50 was 12 µM. For the same compound, in [2], 50 mg/kg produced 22.1% inhibition in vivo.

Compound `CC(=O)N1CCc2c(sc(NC(=O)C(C)C)c2C(N)=O)C1` registered an IC50 in [1] above 100 µM.

In turn, `CCOC(=O)c1c(N(C)C(=O)N(CC)CC)sc2c1CCN(C(C)=O)C2` had an IC50 in [1] of 12 µM. Moreover, 50 mg/kg produced 51.9% inhibition in vivo in assay [2].

In assay [1], `CCOC(=O)c1c(NC(=O)C(C)C)sc2c1CCSC2` returned an IC50 of 34 µM. Further, in assay [2], at 50 mg/kg the inhibition in vivo was 21.2%.
